Laboratory results taken from patent US10766857B2, “Compound having BLT inhibitory activity and composition, for preventing or treating inflammatory diseases, comprising same as active ingredient” (DONGGUK UNIVERSITY INDUSTRY-ACADEMIC COOPERATION FOUNDATION, priority 2015, dated 2020).

How the values were obtained:
BLT1 = molecular target: T1, BLT1 (Homo sapiens, UniProt Q15722); assay: LTB4-induced chemotactic motility, Transwell, CHO-BLT1 cells; format: cell-based; conditions: 10 μM pre-treatment, LTB4 10 nM
T1 construct: expressed in transfected cells; host or cells: CHO cells stably expressing BLT1 (CHO-BLT1)
Experimental: (§1) Chemotactic motility was analyzed using a Transwell chamber including a polycarbonate filter (8-μm pore size, Corning Costar) with a 6.5-mm diameter. Specifically, the lower surface of the filter was coated with 10 μg/mL fibronectin in a serum-free RPMI 1640 medium at 37° C. for 1 hour. The experiment was performed by placing the filter dried and coated with RPMI 1640 media containing various amounts of LTB4 in the lower wells of the Transwell chamber, and loading CHO cells stably expressing BLT1 and BLT2 into the upper wells containing serum-free RPMI 1640 media finally at 2×10^4 cells/100 μL. To evaluate the effect of inhibitors, the cells were pre-treated with each inhibitor for 30 minutes before dispensing. After the cells were cultured at 37° C. in 5% CO2 for 3 hours, the filters were fixed with methanol for 3 minutes, and stained with hematoxylin and eosin for 10 minutes. In the experiment, the cells were BLT2-expressing cells (CHO-BLT2 cells) and BLT1-expressing cells (CHO-BLT1 cells), and LY255283 and U75302 were used as positive controls for each type of the cells, and BLT2 ligand LTB4, (300 nM), BLT1 ligand LTB4 (10 nM), and lysophosphatidic acid (LPA; 100 nM) were used as comparative controls. The chemotactic motility was quantitatively analyzed by counting the cells on the lower side of the filter under an optical microscope (magnification, 200×). For each analysis, 6 fields were subjected to counting, each sample was analyzed twice, and the analysis was repeated three times.

BLT2 [1] = molecular target: T2, BLT2 (Homo sapiens, UniProt Q9NPC1); assay: [3H]LTB4 and BLT2 binding inhibition, CHO-BLT2 cell membrane proteins; conditions: [3H]LTB4 5 nM
T2 construct: HA; expressed in transfected cells
T2 sequence (Q9NPC1 with tags, fused parts or gaps): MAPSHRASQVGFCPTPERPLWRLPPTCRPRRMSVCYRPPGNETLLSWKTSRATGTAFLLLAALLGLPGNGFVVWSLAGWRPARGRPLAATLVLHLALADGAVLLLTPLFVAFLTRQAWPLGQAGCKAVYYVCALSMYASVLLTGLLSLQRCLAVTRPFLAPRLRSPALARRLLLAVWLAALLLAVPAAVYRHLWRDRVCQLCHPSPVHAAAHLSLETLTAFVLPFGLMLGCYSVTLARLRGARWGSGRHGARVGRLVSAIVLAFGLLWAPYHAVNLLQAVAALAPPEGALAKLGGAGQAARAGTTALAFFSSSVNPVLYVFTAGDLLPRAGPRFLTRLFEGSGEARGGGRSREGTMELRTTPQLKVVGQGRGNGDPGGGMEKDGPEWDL
Experimental: The inhibition of LTB4 and BLT2 binding (ligand binding affinity) was analyzed using radioactive tritium (^3H)-labeled LTB4 ([^3H]LTB4, ARC; specific activity 160.0 Ci/mmol). After 2×10^6 of CHO-BLT2 cells were plated into a 100-mm culture dish and cultured for 48 hours, an experimental method was carried out as follows: Collected cells were treated using a homogenizer a total of five times for 1 minute each to separate proteins of the cell membrane. Afterward, the cells were subjected to centrifugation at 4° C. and 45,000 rpm for 40 minutes to only collect the proteins of the cell membrane, and thereby, a protein concentration of 40 μg/45 μL was quantified. When a BLT2-containing cell membrane proteins which were quantified in the same manner was treated with the same amount of [^3H]LTB4 (5 nM), and then a different concentration (10^−9, 10^−8, 10^−7, 10^−6 or 10^−5 M) of a compound, a degree of inhibiting the tritium-labeled LTB4 and BLT2 binding was measured using a Hidex 300sL liquid scintillation counter.

BLT2 [2] = molecular target: T2, BLT2; assay: LTB4-induced chemotactic motility, Transwell, CHO-BLT2 cells; format: cell-based; conditions: LTB4 300 nM
Experimental: as §1

MDA-MB-231 cells = assay: Matrigel invasion of breast cancer cells; format: cell-based
Experimental: (§2) The breast cancer cells such as the MDA-MB-231 cells were obtained from Korean Cell Line Bank (Seoul, Korea), and the MDA-MB-435 cells were provided by J. H. Lee (Asan Medical Center, Seoul, Korea). These cells were cultured in an RPMI 1640 medium (Invitrogen) containing 10% FBS (Life Technologies, Inc.), 1% penicillin (50 units/mL), and an antibiotic antimycotic solution (Life Technologies, Inc.) at 37° C. under a 5% CO2 condition.
(§3) To detect the invasion of breast cancer cells according to the treatment of the compound of the present invention, BioCoat Matrigel Invasion Chambers (BD Biosciences, Bedford, Mass.) were used. 5×10^4 of the breast cancer cells were harvested with trypsin-EDTA, resuspended in 0.5% serum-containing RPMI 1640, and transferred to Matrigel inserts. Five percent serum-containing RPMI 1640 was added to the lower chamber, and the cells were cultured at 37° C. for 36 hours. Each filter was fixed with methanol for 3 minutes, and stained with hematoxylin and eosin for 10 minutes. The invasiveness of the cancer cells was quantified by cell counts on the lower side of the filter under an optical microscope (magnification, 200×). In each analysis, 6 fields were quantified. Each sample was analyzed twice, and the analysis was repeated three times.

MDA-MB-435 cells = assay: Matrigel invasion of breast cancer cells; format: cell-based
Experimental: as §2, §3

T1 sequence (Q15722 whole entry, species assumed): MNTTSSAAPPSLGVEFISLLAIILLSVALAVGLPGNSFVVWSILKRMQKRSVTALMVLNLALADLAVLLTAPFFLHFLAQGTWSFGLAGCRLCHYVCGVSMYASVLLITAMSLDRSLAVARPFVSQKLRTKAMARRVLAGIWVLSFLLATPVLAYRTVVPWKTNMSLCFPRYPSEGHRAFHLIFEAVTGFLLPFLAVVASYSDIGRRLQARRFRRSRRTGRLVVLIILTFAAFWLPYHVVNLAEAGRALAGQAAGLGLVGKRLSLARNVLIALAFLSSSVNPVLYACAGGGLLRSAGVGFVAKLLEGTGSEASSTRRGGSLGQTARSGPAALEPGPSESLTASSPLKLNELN

With CCCCC(=O)N(CC#Cc1ccc(C(=O)N2CCN(C(C)C)CC2)cc1)c1ccccc1 [LMT-696, N-(3-(4-(4-isopropylpiperazine-1-carbonyl)phenyl)prop-2-ynyl)-N-phenylpentaneamide] the “inhibitory effect on chemotactic motility” value (BLT1) was “did not exhibit the inhibitory effect”, the IC50 (BLT2 [1]) was 5.6 nM and the inhibition at 10 µM (BLT2 [2]; 10 μM pre-treatment, read-out: chemotactic motility inhibited compared with LTB4 (DMSO+)) was 70.3%. The IC50 (BLT2 [2]; serum-free, read-out: IC50 of chemotactic motility inhibition) was 2000 nM, the “cancer cell invasion inhibited” value (MDA-MB-231 cells) was 70% and the “cancer cell invasion inhibited” value (MDA-MB-435 cells) was 56%.
